# Results as given in US9725467B2, “Fluorinated benzenesulfonamides as inhibitors of carbonic anhydrase” (VILNIUS UNIVERSITY, priority 2012, dated 2017).
# Experiments:
# CA VII [1] = molecular target: T1, CA VII (Homo sapiens, UniProt P43166); experiment: Fluorescent thermal shift assay (TSA), CA VII; format: binding; details: 37° C., pH 7.0, read-out: Dissociation constants Kd to CA VII (converted)
# CA II [2] = molecular target: T2, CA II (Homo sapiens, UniProt P00918); experiment: Fluorescent thermal shift assay (TSA), CA II; format: binding; details: 37° C., pH 7.0, read-out: Dissociation constants Kd to CA II (converted)
# CA XII [3] = molecular target: T3, CA XII (Homo sapiens, UniProt O43570); experiment: Fluorescent thermal shift assay (TSA), CA XII; format: binding; details: 37° C., pH 7.0, read-out: Dissociation constants Kd to CA XII (converted)
# CA XIII [4] = molecular target: T4, CA XIII (Homo sapiens, UniProt Q8N1Q1); experiment: Fluorescent thermal shift assay (TSA), CA XIII; format: binding; details: 37° C., pH 7.0, read-out: Dissociation constants Kd to CA XIII
# CA I [5] = molecular target: T5, CA I (Homo sapiens, UniProt P00915); experiment: Fluorescent thermal shift assay (TSA), CA I; format: binding; details: 37° C., pH 7.0, read-out: Dissociation constants Kd to CA I (converted)
# CA II [6] = molecular target: T2, CA II; experiment: CO2 hydration assay (stopped-flow); format: biochemical
# CA VII [7] = molecular target: T1, CA VII; experiment: Isothermal titration calorimetry (ITC), CA VII; format: binding; details: 37° C., pH 7.0, read-out: Dissociation constants Kd to CA VII
# CA I [8] = molecular target: T5, CA I; experiment: Isothermal titration calorimetry (ITC), CA I; format: binding; details: 37° C., pH 7.0, read-out: Dissociation constants Kd to CA I
# CA II [9] = molecular target: T2, CA II; experiment: biochemical
# CA XII [10] = molecular target: T3, CA XII; experiment: Isothermal titration calorimetry (ITC), CA XII; format: binding; details: 37° C., pH 7.0, read-out: Dissociation constants Kd to CA XII
# CA XIII [11] = molecular target: T4, CA XIII; experiment: biochemical
# T5 sequence (P00915 whole entry): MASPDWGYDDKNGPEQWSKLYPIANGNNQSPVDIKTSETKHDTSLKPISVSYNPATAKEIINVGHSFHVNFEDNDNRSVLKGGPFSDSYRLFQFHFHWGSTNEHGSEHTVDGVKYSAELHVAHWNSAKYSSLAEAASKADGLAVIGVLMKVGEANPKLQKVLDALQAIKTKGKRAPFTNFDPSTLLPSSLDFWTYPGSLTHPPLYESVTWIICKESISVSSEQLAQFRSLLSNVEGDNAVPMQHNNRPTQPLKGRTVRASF
# T4 sequence (Q8N1Q1 whole entry): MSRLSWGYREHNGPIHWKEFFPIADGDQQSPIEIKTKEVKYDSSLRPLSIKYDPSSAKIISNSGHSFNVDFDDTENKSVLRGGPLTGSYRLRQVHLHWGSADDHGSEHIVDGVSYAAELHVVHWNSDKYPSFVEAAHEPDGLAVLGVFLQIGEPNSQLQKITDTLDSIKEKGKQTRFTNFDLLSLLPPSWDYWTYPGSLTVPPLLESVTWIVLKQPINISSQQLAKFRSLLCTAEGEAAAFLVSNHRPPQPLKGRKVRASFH
# T1 sequence (P43166 whole entry): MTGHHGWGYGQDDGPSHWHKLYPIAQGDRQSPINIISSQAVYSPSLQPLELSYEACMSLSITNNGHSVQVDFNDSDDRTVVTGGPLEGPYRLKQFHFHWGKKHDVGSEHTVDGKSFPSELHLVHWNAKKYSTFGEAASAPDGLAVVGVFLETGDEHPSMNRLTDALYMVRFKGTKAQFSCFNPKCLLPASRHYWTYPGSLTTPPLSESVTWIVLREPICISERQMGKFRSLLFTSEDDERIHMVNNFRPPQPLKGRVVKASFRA
# T3 sequence (O43570 30-291 limits assumed): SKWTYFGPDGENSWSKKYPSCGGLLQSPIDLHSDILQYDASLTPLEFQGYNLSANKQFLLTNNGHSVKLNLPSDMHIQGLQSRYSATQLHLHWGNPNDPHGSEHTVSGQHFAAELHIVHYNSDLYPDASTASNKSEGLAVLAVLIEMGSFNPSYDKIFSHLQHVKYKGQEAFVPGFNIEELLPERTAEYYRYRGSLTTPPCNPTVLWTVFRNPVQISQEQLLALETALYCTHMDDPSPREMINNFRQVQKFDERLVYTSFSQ
Compound,Kd (CA VII [1]) [nM],Kd (CA II [2]) [nM],Kd (CA XII [3]) [nM],Kd (CA XIII [4]) [nM],Kd (CA I [5]) [nM],Ki (CA II [6]) [nM],Kd (CA VII [7]) [nM],Kd (CA I [8]) [nM],Kd (CA II [9]) [nM],Kd (CA XII [10]) [nM],Kd (CA XIII [11]) [nM]
"NS(=O)(=O)c1c(F)c(F)cc(F)c1NC1CCCCCCC1 [Compound 8a, 2-(cyclooctylamino)-3,5,6-trifluorobenzenesulfonamide]",167,200,833,100,167,–,–,–,–,–,–
"CC(C)Nc1c(F)c(SCCc2ccccc2)c(F)c(F)c1S(N)(=O)=O [Compound 3a, 2-(isopropylamino)-3,5,6-trifluoro-4-[(2-phenylethyl)thio]benzenesulfonamide]",130,500,2900,67,3300,–,–,–,–,–,–
"3-{[4-(aminosulfonyl)-2,3,5,6-tetrafluorophenyl]thio}-[1,2,3]thiadiazolo[3,4-a]benzimidazole [Compound 2w]",13,–,110,–,0.4,–,–,–,–,–,–
"NS(=O)(=O)c1c(F)c(F)c(SCCc2ccccc2)c(F)c1NC1CCCCC1 [Compound 3f, 2-(cyclohexylamino)-3,5,6-trifluoro-4-[(2-phenylethyl)thio]benzenesulfonamide]",170,250,500,500,25000,–,–,–,–,–,–
"NS(=O)(=O)c1c(F)c(F)c(SCCO)c(F)c1N[C@H]1CCc2ccccc21 [Compound 4e, 2-[(1S)-2,3-dihydro-1H-inden-1-ylamino]-3,5,6-trifluoro-4-[(2-hydroxyethyl)thio]benzenesulfonamide]",1100,2780,1250,33.3,8300,500,–,–,–,–,–
"NS(=O)(=O)c1c(F)c(F)c(SCCc2ccccc2)c(F)c1NC1Cc2ccccc2C1 [Compound 3l, 2-(2,3-dihydro-1H-inden-2-ylamino)-3,5,6-trifluoro-4-[(2-phenylethyl)thio]benzenesulfonamide]",4000,3300,1700,100,5000,–,–,–,–,–,–
"CC(Nc1c(F)c(SCCc2ccccc2)c(F)c(F)c1S(N)(=O)=O)c1ccccc1 (stereo not shown) [Compound 3d, 2-[(1-phenylethyl)amino]-3,5,6-trifluoro-4-[(2-phenylethyl)thio]benzenesulfonamide]",4000,3300,5000,40,1700,–,–,–,–,–,–

# Next, values leading:
Kd (CA VII [1]) [nM],Kd (CA II [2]) [nM],Kd (CA XII [3]) [nM],Kd (CA XIII [4]) [nM],Kd (CA I [5]) [nM],Ki (CA II [6]) [nM],Kd (CA VII [7]) [nM],Kd (CA I [8]) [nM],Kd (CA II [9]) [nM],Kd (CA XII [10]) [nM],Kd (CA XIII [11]) [nM],Compound
6.7,22.2,250,3.3,213,–,–,–,–,–,–,"COc1ccc(CNc2c(F)c(S(N)(=O)=O)c(F)c(F)c2S(=O)(=O)CCc2ccccc2)cc1OC [Compound 9i, 3-[(3,4-dimethoxybenzyl)amino]-2,5,6-trifluoro-4-[(2-phenylethyl)sulfonyl]benzenesulfonamide]"
8.3,–,–,1.3,67,–,–,–,–,–,–,"CNc1c(F)c(S(N)(=O)=O)c(F)c(F)c1S(=O)(=O)CCc1ccccc1 [Compound 9a, 3-(methylamino)-2,5,6-trifluoro-4-[(2-phenylethyl)sulfonyl]benzenesulfonamide]"
4,17,33,6.7,500,–,–,–,–,–,–,"NS(=O)(=O)c1c(F)c(F)c(S(=O)(=O)CCc2ccccc2)c(NCCc2ccccc2)c1F [Compound 9d, 3-[(2-phenylethy)amino]-2,5,6-trifluoro-4-[(2-phenylethyl)sulfonyl]benzenesulfonamide]"
14.3,25,66.7,4.3,83.3,–,–,–,–,–,–,"COc1ccc(CNc2c(F)c(S(N)(=O)=O)c(F)c(F)c2S(=O)(=O)CCO)cc1OC [Compound 10e, 3-[(3,4-dimethoxybenzyl)amino]-2,5,6-trifluoro-4-[(2-hydroxyethyl)sulfonyl]benzenesulfonamide]"
40,91,400,6.7,770,–,–,–,–,–,–,"NS(=O)(=O)c1c(F)c(F)c(S(=O)(=O)CCc2ccccc2)c(N[C@H](c2ccccc2)[C@@H](O)c2ccccc2)c1F [Compound 9o, 3-{[(1R,2S)-2-hydroxy-1,2-diphenylethyl]amino}-2,5,6-trifluoro-4-[(2-phenylethyl)sulfonyl]benzenesulfonamide]"
5,–,–,2.5,56,–,–,–,–,–,–,"NS(=O)(=O)c1c(F)c(F)c(S(=O)(=O)CCc2ccccc2)c(NCc2ccccc2)c1F [Compound 9c, 3-(benzylamino)-2,5,6-trifluoro-4-[(2-phenylethyl)sulfonyl]benzenesulfonamide]"
667,22.2,167,8.3,58.8,–,–,–,–,–,–,"COc1cccc(OC)c1CNc1c(F)c(S(N)(=O)=O)c(F)c(F)c1S(=O)(=O)CCc1ccccc1 [Compound 9h, 3-[(2,6-dimethoxybenzyl)amino]-2,5,6-trifluoro-4-[(2-phenylethyl)sulfonyl]benzenesulfonamide]"
5,50,17,5.6,500,–,–,–,–,–,–,"NS(=O)(=O)c1c(F)c(F)c(S(=O)(=O)CCc2ccccc2)c(NC23CC4CC(CC(C4)C2)C3)c1F [Compound 9j, 3-(1-adamantylamino)-2,5,6-trifluoro-4-[(2-phenylethyl)sulfonyl]benzenesulfonamide]"
10,33,250,5.6,1700,–,–,–,–,–,–,"NS(=O)(=O)c1c(F)c(F)c(S(=O)(=O)CCc2ccccc2)c(N[C@@H](c2ccccc2)[C@H](O)c2ccccc2)c1F [Compound 9n, 3-{[(1S,2R)-2-hydroxy-1,2-diphenylethyl]amino}-2,5,6-trifluoro-4-[(2-phenylethyl)sulfonyl]benzenesulfonamide]"
130,–,–,14,200,–,405,130,139,12.2,45.2,"NS(=O)(=O)c1c(F)c(F)c(S(=O)(=O)CCO)c(NCc2ccccc2)c1F [Compound 10a, 3-(benzylamino)-2,5,6-trifluoro-4-[(2-hydroxyethyl)sulfonyl]benzenesulfonamide]"
40,16.7,66.7,25,200,–,–,–,–,–,–,"COc1cccc(OC)c1CNc1c(F)c(S(N)(=O)=O)c(F)c(F)c1S(=O)(=O)CCO [Compound 10d, 3-[(2,6-dimethoxybenzyl)amino]-2,5,6-trifluoro-4-[(2-hydroxyethyl)sulfonyl]benzenesulfonamide]"
